Key:
[1] = system: CP-450 system; details: cited from earlier work
[2] = as a medical food or other suitable formulation; cited from earlier work
[3] = cited from earlier work
[4] = system: patients with an autism spectrum disorder or an attention deficit disorder
Protocol: The patient is dosed with L-methylfolate orally once a day according to preparations available. The patient takes the medication at the same time of day and with a snack or meal. The patient is initially dosed with L-methylfolate according to weight as follows: • 25-45 lbs (11-20 kg): 2.5 mg • 46-60 lbs (21-27 kg): 5 mg • 61-90 lbs (28-41 kg): 7.5 mg • 91+ lbs (42+kg): 7.5-15 mg Dose Modifications and Duration of Therapy
L-methylfolate is administered in doses and forms appropriate for age. L-methylfolate is titrated upward as indicated by behavior improvement according to the results from the screens. Titration may occur from week 1 through 30 days as indicated by the physician. From 30 days to 90 days, the achieved dose at 30 days is maintained until 90 days to observe for tolerance to drug, side effects. During this time, if the child is not weaned from stimulant medications, attempts are made to lower the stimulant as tolerated and discontinue stimulants if at all possible.
In implementing therapy the first consideration is the presence of clinical signs consistent with previous or current diagnosis of an autism spectrum disorder or an attention deficit disorder. […] The established diagnosis was not a sole indicator for therapy.
Second, a review of the family history is necessary. […] Parents were questioned about the presence of ADHD or autism spectrum disorders in the immediate family or extended family. Of particular interest was the presence of other neuropsychiatric conditions, such as depression, anxiety, and bipolar disorder. Parents also were queried regarding the presence of heart disease, difficulties with pregnancy due infertility or miscarriages, leukemia, gastric and colon cancers, breast cancer and stroke. In elderly members of the family, the occurrence of dementia, Alzheimer's, and Parkinson's was also discussed. The above diseases have also been associated to varying degrees with the methylenetetrahydrofolate reductase defect.
Third, blood samples were collected and evaluated. The laboratory exams completed on the blood samples were: a complete blood count with differential, serum folate, serum B12, and serum homocysteine. The tests were performed to establish a baseline for red cell morphology while evaluating for any pre-existing pathologies related to anemia, leukemia, or other blood dycrasias. Serum folate and B12 have been implicated in certain pathologies of the red blood cell and are critical components in folate metabolism. Vitamin B12 in the range of 400 pg/ml or less has been associated with neuropsychiatric sequelae in 5-10% of population. (Quest Labs) Finally, elevated homocysteine levels in the serum have been associated with various disease states, particularly in the presence of the methylenetetrahydrofolate reductase gene polymorphisms. […] However, a few researchers have been able to evaluate severely compromised children.
Fourth, serum was evaluated for the presence of methylenetetrahydrofolate reductase polymorphisms as a predictor of condition severity and response to therapy. Given the expense of these analyses, it was decided to delay evaluation of the serum for the polymorphisms until a clinic response was determined.
In a preliminary trial, nineteen patients, ages 4-43 years, (3 female, 16 male) were randomly selected over the course of three months. Patients were permitted to remain on current medication or supplemental, i.e., fish oil and vitamins, therapies at parental request.

[5] = via the kidneys; cited from earlier work
[6] = of the 14 patients, parental report

Question: With `CN1c2c(nc(N)[nH]c2=O)NC[C@@H]1CNc1ccc(C(=O)N[C@@H](CCC(=O)O)C(=O)O)cc1` [L-methylfolate, 6(S)-5-methyltetrahydrofolate] as the compound, how does the “effect on CP-450 system” value [1] read?
Answer: Its value is “does not affect CP-450 system”.

Question: And the “blood brain barrier crossing” value [2]?
Answer: Its value is “crosses the blood brain barrier”.

Question: And the allergic reactions ([3]; oral use)?
Answer: Its allergic reactions is “Allergic reactions have been documented”.

Question: What about the “response to therapy as indicated by parents' correspondence and office visits” value ([4]; 14 remaining of 19 patients, ages 4-43 years, oral once daily, dose by weight 2.5-15 mg, more stable mood, increased attentiveness, improved sleep hygiene) of the same compound?
Answer: The value was “all have had a response to therapy”.

Question: What about the “patients with intermediate responses” value [4, 6] of the same compound?
Answer: Its value is “two”.

Question: And the “patients with significant improvements” value [4, 6]?
Answer: The value was 12.

Question: What about the side effects ([4]; preliminary experience) of the same compound?
Answer: The side effects was “No side effects have been reported”.

Question: What about the “time course of initial improvement” value ([4]; preliminary trial) of the same compound?
Answer: Its value is 3-5 days, two weeks, or 4-6 weeks.

Question: And the “clinical response in patients negative for MTHFR gene polymorphisms” value ([4]; two children, parental reports)?
Answer: Its value is “responding clinically”.

Question: And the “response in patients positive for MTHFR gene polymorphisms” value ([4]; two of four patients with MTHFR analyses)?
Answer: The value was “positive response to therapy”.

Question: And the excretion [5]?
Answer: The excretion was “rapidly excreted via the kidneys”.

Question: For `Nc1nc(=O)c2c([nH]1)NCC(CNc1ccc(C(=O)N[C@@H](CCC(=O)O)C(=O)O)cc1)N2C=O` (mixture of isomers) [folinic acid], which “side effect, anecdotal report” value ([3]; one patient, dose increased to 1 mg/kg/d) is on record?
Answer: Its value is “worsening of behavior symptoms”.

From patent US8389535B2, “L-methylfolate treatment for psychiatric or neurologic disorders” (priority 2010, dated 2013)
